Where a SMILES comes first, the peptide text is derived from it. Bridges are numbered along the chain shown (N, C = ends). [ ]: non-standard residue; d: D form. Oic = O=C(O)[C@@H]1C[C@@H]2CCCC[C@@H]2N1; Dab = NCC[C@H](N)C(=O)O

Sequences and labels used below:
T1: Formyl-Peptide Receptor 1 (UniProt P21462 1-350, limits assumed)
T1 sequence (looked up): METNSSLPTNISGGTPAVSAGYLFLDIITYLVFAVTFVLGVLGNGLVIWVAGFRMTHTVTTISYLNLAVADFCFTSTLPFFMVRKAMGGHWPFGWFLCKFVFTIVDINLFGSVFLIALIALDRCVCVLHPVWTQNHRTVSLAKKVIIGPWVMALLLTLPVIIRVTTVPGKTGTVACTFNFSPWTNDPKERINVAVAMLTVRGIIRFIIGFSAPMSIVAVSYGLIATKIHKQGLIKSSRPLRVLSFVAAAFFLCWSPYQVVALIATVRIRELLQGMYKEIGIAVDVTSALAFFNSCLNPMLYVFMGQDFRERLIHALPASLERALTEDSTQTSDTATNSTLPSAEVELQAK

T2: FPR1 (Homo sapiens, UniProt P21462)
T2 construct: host or cells: CHO (PathHunter CHO-FPR1 β-arrestin cells)
T2 sequence (P21462 1-350): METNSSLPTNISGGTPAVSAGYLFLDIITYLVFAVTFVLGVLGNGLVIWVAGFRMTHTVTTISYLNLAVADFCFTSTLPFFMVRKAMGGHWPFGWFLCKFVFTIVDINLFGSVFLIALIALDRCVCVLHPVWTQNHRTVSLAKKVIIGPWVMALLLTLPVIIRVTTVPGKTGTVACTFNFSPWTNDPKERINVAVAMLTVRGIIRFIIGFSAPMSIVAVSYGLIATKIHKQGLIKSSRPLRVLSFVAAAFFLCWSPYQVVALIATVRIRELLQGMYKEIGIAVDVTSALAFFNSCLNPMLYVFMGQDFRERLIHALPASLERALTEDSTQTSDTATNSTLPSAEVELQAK

B1: cyclo(-Tyr-His-Lys-Cys-His-Gly-^DPro-Trp-Thr-Ile-Cys-Tyr-Glu-Lys-^DPro-Oic-) (peptide)
peptide: cyclo(YHKCHG[dP]WTICYEK[dP][Oic])
modifications: disulfide 4-11

The target of the first assay is T1, Formyl-Peptide Receptor 1. The assay can be described thus: cell-based or functional assay.
Details: not given
Take B1: the “β-Arrestin IC50” value is 267 nM.

Another assay has as its target T2, FPR1. As to the kind of experiment: FPR1 β-arrestin recruitment assay (PathHunter CHO-FPR1, antagonistic mode). The format is cell-based. The note with it: CHO FPR1 β-arrestin cells; antagonistic assay vs reference agonist fMLF at its EC80; 60 min preincubation. The protocol: 2.2 FPR1 β-Arrestin Recruitment Assay
The PathHunter CHO—FPR1 (DiscoverX) assay was performed according to the manufacturer's protocol. In brief, CHO FPR1 β-arrestin cells were seeded at a density of 9000 cells per well in 20 μl of Ham's F12 medium (Invitrogen) in black 384-well culture plates and incubated overnight at 37° C. in a humidified atmosphere with 5% CO2. The next day, serial dilutions of the β-hairpin peptidomimetics of this invention have been prepared in DMSO and subsequently diluted in HBSS buffer supplemented with 20 mM Hepes and 0.1% BSA.
For antagonistic assay, 5 μl of compound solution or buffer was added to the cells with a final DMSO concentration of 0.5% (v/v). The plate was incubated for 60 min at 37° C. with 5% CO2 before addition of […] of the reference agonist fMLF peptide (Sigma-Aldrich) at its EC80 concentration. After 90 min of incubation at 37° C. with 5% CO2, 15 μl of beta-Glo detection reagent (Promega) were added. Reaction was developed for 20 min at room temperature and chemiluminescence was measured with a Victor2V (Perkin Elmer) luminescence reader.
For orientation: Activated receptors often draw arrestin, which recruitment assays turn into a signal.
In the case of `CC[C@H](C)[C@@H]1NC(=O)[C@H]([C@@H](C)O)NC(=O)[C@H](Cc2c[nH]c3ccccc23)NC(=O)[C@@H](C)NC(=O)CNC(=O)[C@H](Cc2c[nH]cn2)NC(=O)[C@@H]2CSSC[C@H](NC1=O)C(=O)N[C@@H](Cc1ccc(O)cc1)C(=O)N[C@@H](CCC(=O)O)C(=O)N[C@@H](CCCCN)C(=O)N1CCC[C@@H]1C(=O)N[C@@H](CCC(=O)O)C(=O)N[C@@H](Cc1ccc(O)cc1)C(=O)N[C@@H](Cc1c[nH]cn1)C(=O)N[C@@H](CCCCN)C(=O)N2` [Ex. 4, cyclo(-Tyr-His-Lys-Cys-His-Gly-^DAla-Trp-Thr-Ile-Cys-Tyr-Glu-Lys-^DPro-Glu-)] (cyclo(YHKCHG[dA]WTICYEK[dP]E); disulfide 4-11), the IC50 (usually the concentration that gives 50% inhibition) turned out to be 77 ± 22 nM. For the molecule `CC[C@H](C)[C@@H]1NC(=O)[C@H]([C@@H](C)O)NC(=O)[C@H](Cc2c[nH]c3ccccc23)NC(=O)[C@H]2CCCN2C(=O)CNC(=O)[C@H](Cc2c[nH]cn2)NC(=O)[C@@H]2CSSC[C@H](NC1=O)C(=O)N[C@@H](Cc1ccc(O)cc1)C(=O)N[C@@H](CCC(N)=O)C(=O)N[C@@H](CCCCN)C(=O)N1CCC[C@@H]1C(=O)N1CCC[C@H]1C(=O)N[C@@H](Cc1ccc(O)cc1)C(=O)N[C@@H](Cc1c[nH]cn1)C(=O)N[C@@H](Cc1c[nH]c3ccccc13)C(=O)N2` [Ex. 11, cyclo(-Tyr-His-Trp-Cys-His-Gly-^DPro-Trp-Thr-Ile-Cys-Tyr-Gln-Lys-^DPro-Pro-)] (cyclo(YHWCHG[dP]WTICYQK[dP]P); disulfide 4-11), the half-inhibitory concentration (IC50) came to 177 ± 121 nM.

In turn, `CC[C@H](C)[C@@H]1NC(=O)[C@H]([C@@H](C)O)NC(=O)[C@H](Cc2c[nH]c3ccccc23)NC(=O)[C@H]2CCCN2C(=O)CNC(=O)[C@H](Cc2c[nH]c3ccccc23)NC(=O)[C@@H]2CSSC[C@H](NC1=O)C(=O)N[C@@H](Cc1ccc(O)cc1)C(=O)N[C@@H](CCC(N)=O)C(=O)N[C@@H](CCCCN)C(=O)N1CCC[C@@H]1C(=O)N1CCC[C@H]1C(=O)N[C@@H](Cc1ccc(O)cc1)C(=O)N[C@@H](Cc1c[nH]cn1)C(=O)N[C@@H](C)C(=O)N2` [Ex. 40, cyclo(-Tyr-His-Ala-Cys-Trp-Gly-^DPro-Trp-Thr-Ile-Cys-Tyr-Gln-Lys-^DPro-Pro-)] (cyclo(YHACWG[dP]WTICYQK[dP]P); disulfide 4-11) gave an IC50 of 96 ± 30 nM. The same measure, in the same setting: to `CC[C@H](C)[C@@H]1NC(=O)[C@H]([C@@H](C)O)NC(=O)[C@H](Cc2c[nH]c3ccccc23)NC(=O)[C@H]2CCCN2C(=O)CNC(=O)[C@H](Cc2c[nH]cn2)NC(=O)[C@@H]2CSSC[C@H](NC1=O)C(=O)N[C@@H](Cc1ccc(O)cc1)C(=O)N[C@@H](CCC(=O)O)C(=O)N[C@@H](CCCCN)C(=O)N1CCC[C@@H]1C(=O)N[C@@H](CCN)C(=O)N[C@@H](Cc1ccc(O)cc1)C(=O)N[C@@H](Cc1c[nH]cn1)C(=O)N[C@@H](CCCCN)C(=O)N2` [Ex. 89, cyclo(-Tyr-His-Lys-Cys-His-Gly-^DPro-Trp-Thr-Ile-Cys-Tyr-Glu-Lys-^DPro-Dab-)] (cyclo(YHKCHG[dP]WTICYEK[dP][Dab]); disulfide 4-11) belongs 189 ± 65 nM; to `CC[C@H](C)[C@@H]1NC(=O)[C@H]([C@@H](C)O)NC(=O)[C@H](Cc2c[nH]c3ccccc23)NC(=O)[C@H]2CCCN2C(=O)CNC(=O)[C@H](Cc2c[nH]cn2)NC(=O)[C@@H]2CSSC[C@H](NC1=O)C(=O)N[C@@H](Cc1ccc(O)cc1)C(=O)N[C@@H](CCC(=O)O)C(=O)N[C@@H](CCCCN)C(=O)N[C@H](CCCCN)C(=O)N[C@@H](CCC(=O)O)C(=O)N[C@@H](Cc1ccc(O)cc1)C(=O)N[C@@H](Cc1c[nH]cn1)C(=O)N[C@@H](CCCCN)C(=O)N2` [compound 5, cyclo(-Tyr-His-Lys-Cys-His-Gly-^DPro-Trp-Thr-Ile-Cys-Tyr-Glu-Lys-^DLys-Glu-)] (cyclo(YHKCHG[dP]WTICYEK[dK]E); disulfide 4-11), 124 ± 67 nM. The same measure, in the same setting: as for `CC[C@H](C)[C@@H]1NC(=O)[C@H]([C@@H](C)O)NC(=O)[C@H](Cc2c[nH]c3ccccc23)NC(=O)[C@H]2CCCN2C(=O)CNC(=O)[C@H](Cc2c[nH]cn2)NC(=O)[C@@H]2CSSC[C@H](NC1=O)C(=O)N[C@@H](Cc1ccc(O)cc1)C(=O)N[C@@H](CCC(=O)O)C(=O)N[C@@H](CCCCN)C(=O)N[C@H](C)C(=O)N[C@@H](CCC(=O)O)C(=O)N[C@@H](Cc1ccc(O)cc1)C(=O)N[C@@H](Cc1c[nH]cn1)C(=O)N[C@@H](CCCCN)C(=O)N2` [compound 6, cyclo(-Tyr-His-Lys-Cys-His-Gly-^DPro-Trp-Thr-Ile-Cys-Tyr-Glu-Lys-^DAla-Glu-)] (cyclo(YHKCHG[dP]WTICYEK[dA]E); disulfide 4-11), the figure is 124 ± 10 nM; as for `CC[C@H](C)[C@@H]1NC(=O)[C@H]([C@@H](C)O)NC(=O)[C@H](Cc2c[nH]c3ccccc23)NC(=O)[C@H]2CCCN2C(=O)CNC(=O)[C@H](Cc2c[nH]cn2)NC(=O)[C@@H]2CSSC[C@H](NC1=O)C(=O)N[C@@H](Cc1ccc(O)cc1)C(=O)N[C@@H](CCC(=O)O)C(=O)N[C@@H](CCCCN)C(=O)N1CCC[C@@H]1C(=O)N1CCC[C@H]1C(=O)N[C@@H](Cc1ccc(O)cc1)C(=O)N[C@@H](Cc1c[nH]cn1)C(=O)N[C@@H](C)C(=O)N2` [compound 30, cyclo(-Tyr-His-Ala-Cys-His-Gly-^DPro-Trp-Thr-Ile-Cys-Tyr-Glu-Lys-^DPro-Pro-)] (cyclo(YHACHG[dP]WTICYEK[dP]P); disulfide 4-11), 189 ± 79 nM; as for `CC[C@H](C)[C@@H]1NC(=O)[C@H]([C@@H](C)O)NC(=O)[C@H](Cc2c[nH]c3ccccc23)NC(=O)[C@H]2CCCN2C(=O)CNC(=O)[C@H](Cc2c[nH]c3ccccc23)NC(=O)[C@@H]2CSSC[C@H](NC1=O)C(=O)N[C@@H]([C@@H](C)O)C(=O)N[C@@H](CCC(N)=O)C(=O)N[C@@H](CCCCN)C(=O)N1CCC[C@@H]1C(=O)N1CCC[C@H]1C(=O)N[C@@H](Cc1ccc(O)cc1)C(=O)N[C@@H](Cc1c[nH]cn1)C(=O)N[C@@H](C)C(=O)N2` [compound 34, cyclo(-Tyr-His-Ala-Cys-Trp-Gly-^DPro-Trp-Thr-Ile-Cys-Thr-Gln-Lys-^DPro-Pro-)] (cyclo(YHACWG[dP]WTICTQK[dP]P); disulfide 4-11), 685 ± 68 nM.

On to `CC[C@H](C)[C@@H]1NC(=O)[C@H]([C@@H](C)O)NC(=O)[C@H](Cc2c[nH]c3ccccc23)NC(=O)[C@H]2CCCN2C(=O)CNC(=O)[C@H](Cc2c[nH]c3ccccc23)NC(=O)[C@@H]2CSSC[C@H](NC1=O)C(=O)N[C@@H](Cc1ccc(O)cc1)C(=O)N[C@@H](CCC(=O)O)C(=O)N[C@@H](CCCCN)C(=O)N[C@H](C)C(=O)N1CCC[C@H]1C(=O)N[C@@H](Cc1ccc(O)cc1)C(=O)N[C@@H](Cc1c[nH]cn1)C(=O)N[C@@H](CCCCN)C(=O)N2` [compound 42, cyclo(-Tyr-His-Lys-Cys-Trp-Gly-^DPro-Trp-Thr-Ile-Cys-Tyr-Glu-Lys-^DAla-Pro-)] (cyclo(YHKCWG[dP]WTICYEK[dA]P); disulfide 4-11), for which the IC50 was 126 ± 78 nM. Compared with the last molecule, the IC50 is about 5.4-fold lower.

The record behind these values is US9957297B2, “Template-fixed peptidomimetics as inhibitors of FPR1” (POLYPHOR AG, priority 2011, dated 2018).
